From patent EP0337503B1, “Fumigation methods and compositions” (Entek Corporation, priority 1983, dated 1984)

How the values were obtained:
[1] = test system: nematode larvae; experiment: In-vitro nematocidal test: larvae treated in aqueous suspension, injected into root zone of tomato plants, gall count; type: in vivo, Meloidogyne incognita; details: for Gall Count, replicate 2: control 88; for Gall Count, Mean: control 89; for Gall Count, replicate 1: control 90
Protocol: The procedure of Example 2 is repeated except that potassium tetrathiocarbonate is substituted for stabilized ammonium tetrathiocarbonate and an in-vitro nematocidal test is used. In the in-vitro test, the nematode larvae are treated in aqueous suspension for 1 hour at the concentrations of fumigant given in the following table, washed twice with water, and injected into the active root zone of the tomato plants. After thirty days the roots are harvested, examined for galling, giving the results summarized below.

[2] = Rate of carbon disulfide loss from solutions, nitrogen bubbling, mass spectrometer; type: physicochemical; details: undiluted: Prep. 1 100%; pure carbon disulfide for comparison
Protocol: The rate at which carbon disulfide is lost from diluted ammonium thiocarbonate compositions is determined by bubbling nitrogen through the solutions, and measuring the carbon disulfide content of the gas which leaves the solution, using a mass spectrometer.
In the determination, the solution, corresponding to that of Preparation 1 (containing 14.1 percent by weight carbon disulfide), is compared to pure carbon disulfide, and to serial dilutions of the Preparation 1 solution with water, which prepared 10, 1 and 0.1 volume percent solutions of the original composition.
Results are as tabulated, wherein k is the calculated first order rate constant for loss of carbon disulfide, and t is the solution half-life.

[3] = Decomposition in sandy loam soil at different moisture, CS2 in air space by gas chromatography; type: physicochemical; details: hours to maximum CS2 concentration in the air space
Protocol: A sandy loam soil is placed in 1-liter glass bottles, fitted with stoppers having fluorocarbon liners and silicone rubber septa, to give a soil depth of about 4 cm. […] Thiocarbonate solution or carbon disulfide is injected near the bottom of the soil layer, the bottles are promptly sealed, and the air space in the bottles is sampled at intervals with a syringe, for gas chromatographic analysis of CS2. Results are summarized below, wherein degradation time is the number of hours required to achieve the maximum CS2 concentration in the air space.

[4] = Effect of pH on production of CS2 from thiocarbonates in citrate-phosphate buffers, gas chromatography of air; type: physicochemical
Protocol: Pure carbon disulfide is also injected, for comparison. A syringe is used to periodically sample air in the bottle, and the air is analyzed by gas chromatography.

[5] = test system: root-knot nematode larvae (Meloidogyne incognita); experiment: Greenhouse nematocide experiment with tomato plants, soil drench, root gall count; type: in vivo; details: 30 days; for Gall Counts, replicate 3: control 1; for Gall Counts, Mean: control 4.0; for Gall Counts, replicate 2: control 7; for Gall Counts, replicate 1: control 4
Protocol: In the experiment, thirty containers are used, each containing about 500 grams of sterilized sandy loam soil. Each container contains one tomato plant. Each container is injected with four 5-milliliter portions of extract from nematode-infested pepper roots, one inch below the soil surface, producing an initial population of 2000 root-knot nematode larvae (Meloidogyne incognita) per container.
Ten treatments are replicated three times, each treatment consisting of drenching the soil with a solution containing the fumigant to provide the dosage of CS2 given in the following table. The solutions are diluted with sufficient water to saturate the soil. The treatments include calcium tetrathiocarbonate, stabilized ammonium tetrathiocarbonate, and carbon disulfide at three levels, plus an untreated control. After drenching, each container is allowed to stand at ambient conditions. The plants are harvested after 30 days of growth, and soil is removed from the roots by a gentle washing with water. By use of a magnifying glass, the number of root galls is counted on each plant.
Results are summarized below, wherein the "Application" represents milligrams of treatment per kilogram of soil, calculated as the thiocarbonate salt and the equivalent carbon disulfide. Gall counts are mean values from the three replicates.

[6] = 10 ppm CS2, larvae treated 1 hour
[7] = 20 ppm CS2, larvae treated 1 hour
[8] = highest application: 638/89 ppm ((NH4)2CS4·(NH4)2S), 730/91 (CaCS4), 97 ppm (CS2)
[9] = lowest application: 213/30 ppm ((NH4)2CS4·(NH4)2S), 245/31 (CaCS4), 32 ppm (CS2)
[10] = middle application: 425/60 ppm ((NH4)2CS4·(NH4)2S), 490/61 (CaCS4), 65 ppm (CS2)

**Q.** For `S=C=S` [CS2, carbon disulfide, reference compound], which “Gall Count, replicate 2” value [1, 6] is on record?
**A.** Its value is 149.

**Q.** What about the “Gall Count, Mean” value [1, 6] of the same molecule?
**A.** Its value is 106.5.

**Q.** What about the “Gall Count, replicate 1” value [1, 6] of the same molecule?
**A.** Its value is 64.

**Q.** And the “Gall Count, replicate 2” value [1, 7]?
**A.** The value was 73.

**Q.** And the “Gall Count, Mean” value [1, 7]?
**A.** Its value is 51.0.

**Q.** What about the “Gall Count, replicate 1” value [1, 7] of the same molecule?
**A.** Its value is 29.

**Q.** What about the “k, calculated first order rate constant for loss of carbon disulfide” value [2] of the same molecule?
**A.** The value was 2.0 (1)/(hour).

**Q.** And the “Degradation Time” value ([3]; Soil Moisture 0 % of Saturation)?
**A.** Its value is 3.5 h.

**Q.** And the “Degradation Time” value ([3]; Soil Moisture 50 % of Saturation)?
**A.** The value was 3.5 h.

**Q.** What about the “Degradation Time” value ([3]; Soil Moisture 100 % of Saturation) of the same molecule?
**A.** The value was 3.5 h.

**Q.** What about the “Half-life (minutes) for production of carbon disulfide” value (“Half-life (minutes) for production” below) ([4]; pH 5.2, 125 milligrams per liter of thiocarbonate ion) of the same molecule?
**A.** The value was 1 min.

**Q.** And the “Half-life (minutes) for production” value ([4]; pH 6.0, 125 milligrams per liter of thiocarbonate ion)?
**A.** The value was 1 min.

**Q.** What about the “Half-life (minutes) for production” value ([4]; pH 7.0, 125 milligrams per liter of thiocarbonate ion) of the same molecule?
**A.** Its value is 1 min.

**Q.** And the “Half-life (minutes) for production” value ([4]; pH 8.0, 125 milligrams per liter of thiocarbonate ion, CaCS4 values above pH 7 called unreliable)?
**A.** Its value is 1 min.

**Q.** What about the “Gall Counts, replicate 3” value [5, 8] of the same molecule?
**A.** The value was 9.

**Q.** What about the “Gall Counts, Mean” value [5, 8] of the same molecule?
**A.** The value was 20.0.

**Q.** And the “Gall Counts, replicate 2” value [5, 8]?
**A.** The value was 24.

**Q.** And the “Gall Counts, replicate 1” value ([5]; highest application: 638 ppm salt/89 ppm Eq. CS2 ((NH4)2CS4·(NH4)2S), 730/91 (CaCS4), 97 ppm (CS2))?
**A.** Its value is 27.

**Q.** What about the “Gall Counts, replicate 3” value [5, 9] of the same molecule?
**A.** Its value is 12.

**Q.** And the “Gall Counts, Mean” value [5, 9]?
**A.** Its value is 22.0.

**Q.** What about the “Gall Counts, replicate 2” value [5, 9] of the same molecule?
**A.** The value was 23.

**Q.** And the “Gall Counts, replicate 1” value ([5]; lowest application: 213 ppm salt/30 ppm Eq. CS2 ((NH4)2CS4·(NH4)2S), 245/31 (CaCS4), 32 ppm (CS2))?
**A.** Its value is 31.

**Q.** What about the “Gall Counts, replicate 3” value [5, 10] of the same molecule?
**A.** Its value is 33.

**Q.** What about the “Gall Counts, Mean” value [5, 10] of the same molecule?
**A.** The value was 26.7.

**Q.** And the “Gall Counts, replicate 2” value [5, 10]?
**A.** Its value is 19.

**Q.** And the “Gall Counts, replicate 1” value ([5]; middle application: 425 ppm salt/60 ppm Eq. CS2 ((NH4)2CS4·(NH4)2S), 490/61 (CaCS4), 65 ppm (CS2))?
**A.** The value was 28.
